Results taken from patent publication US6110895A, “Method of promoting healing in skin grafts” (University of Southern California, priority 1997, dated 2000).

Experiments:
[1] = tested on: full thickness dermal wounds; test: Healing of full thickness dermal wounds with AIII (Example 3); assay type: in vivo, Sprague Dawley rats; conditions: 2×2 cm wounds; 3 μg and 10 μg dosages; FIG. 8
Text: Twelve week old male Sprague Dawley rats were obtained from Simonsen Laboratories (Gilroy, Calif.). On the date of surgery, rats received intramuscular ketamine/rompum anesthesia prior to preparation for surgery. The rats were shaved and scrubbed with betadine. Four 2×2 cm full thickness dermal wounds were created on the dorsal surface of the rat. Following excision of the skin, the size of the wound was outlined on a glass slide to establish the baseline wound size. The medicament was administered in 100 μl of a solution comprising 10% HYDRON, 1% polyethylene glycol (MW 400) and 60% ethanol. Test materials were administered in a randomized fashion. AIII was evaluated at 3 and 10 μg/wound. Controls were treated with vehicle only. After administration of the materials, the rats were bandaged and allowed to recover from anesthesia. At days 2, 5, 6, 8 and 10 the area of the skin wounds were measured under methoxyflurane anesthesia. The area of the wound was determined by: (1) tracing the wound shape onto graph paper (1×1 mm squares); (2) cutting out the shape; (3) weighing the paper and comparing the weight with a 2×2 cm paper cutout; and (4) counting the number of squares.

aminopeptidase = conditions: reported in literature; cited from earlier work
rat carotid artery = conditions: cited from earlier work; for neointimal formation: similar model, Janiak et al. 1992, CGP 42112 infused perivascularly 14 days, losartan low doses
[2] = tested on: full thickness dermal wounds; test: Wound closure by analogs of AII and AIII, Table 4 (Example 7); assay type: in vivo, Sprague Dawley rats; conditions: percentage of vehicle-treated control wound, method of Example 6 (100 μg/wound, days 0-4)
Text: Female Sprague Dawley rats weighing 175-200 grams were obtained from Simonsen Laboratories (Gilroy, Calif.). On the day of surgery, rats received intramuscular ketamine/rompum anesthesia prior to preparation for surgery. The rats were shaved and scrubbed with betadine. Two 1.5×1.5 cm full thickness dermal wounds were created on the dorsal surface of each rat. Following excision of the skin, the size of the wound was outlined on a glass slide to establish the baseline wound size. The medicament was administered in 100 μl of 10% low viscosity carboxymethyl cellulose (Sigma). The p-NH2 -Phe6-AII test material was administered in a randomized fashion with all materials being tested at 100 μg/wound. Control wounds were treated with vehicle only. After administration of the materials, the rats were bandaged and allowed to recovery from anesthesia. The rats were treated with an additional 100 μg of peptide formulation on days 1-4 after surgery. On days 2, 4, 7 and 9 the area of the skin wounds were measured under methoxyflurane anesthesia. The area of the wound was determined by: (1) tracing the wound shape onto graph paper (1×1 mm squares); (2) cutting out the shape; (3) weighing the paper and comparing the weight with a 1.5×1.5 cm paper cutout; and (4) counting the number of squares on the graph paper. In addition, on days 2, 4 and 7 the area of granulation tissue was similarly determined.
Analogs of AII and AIII having the structures disclosed in Table 4 were prepared using an automated peptide synthesizer and methods familiar to those having ordinary skill in the art. Each of the analogs was tested for its ability to accelerate wound healing essentially according to the method of Example 6. Results of procedures used to determine the extent of wound closure at days 4 and 9 measured as a percentage of a vehicle-treated control wound are also presented in Table 4. Since all of the analogs were not tested during the same experimental procedure, AII was included as a positive control for each group of peptides tested. As designated below, peptide analogs are identified as analogs of AII or AIII having amino acid substitutions at positions indicated by superscripts. Thus, for example, Gly^4 -AIII is the designation for an AIII analog having a Gly residue substituted at position 4 of AIII. Results from procedures using analogs that were tested as a group are grouped together in the following Table.

[3] = cited from earlier work
[4] = intracerebroventricular infusion at concentrations 1,000 times higher than that of AII; cited from earlier work

CC[C@H](C)[C@H](NC(=O)[C@H](Cc1ccc(O)cc1)NC(=O)[C@@H](NC(=O)[C@@H](N)CCCNC(=N)N)C(C)C)C(=O)N[C@@H](Cc1c[nH]cn1)C(=O)N1CCC[C@H]1C(=O)N[C@@H](Cc1ccccc1)C(=O)O [AIII, Arg-Val-Tyr-Ile-His-Pro-Phe]
wound closure relative to vehicle-treated control [1]: substantially accelerated

CC[C@H](C)[C@H](NC(=O)[C@H](Cc1ccc(O)cc1)NC(=O)[C@@H](NC(=O)[C@H](CCCNC(=N)N)NC(=O)CNC)C(C)C)C(=O)N[C@@H](Cc1cnc[nH]1)C(=O)N1CCC[C@H]1C(=O)N[C@@H](Cc1ccccc1)C(=O)O [Analog 4, Sar-Arg-Val-Tyr-Ile-His-Pro-Phe]
cleavage by aminopeptidase (aminopeptidase): resistant to cleavage by aminopeptidase

Cc1cc(Cn2cnc3c2C[C@@H](C(=O)O)N(C(=O)C(c2ccccc2)c2ccccc2)C3)ccc1N(C)C [PD 123319]
reduction of intimal hyperplasia (rat carotid artery; Pratt et al. 1992): 73%

CCCCc1nc(Cl)c(CO)n1Cc1ccc(-c2ccccc2-c2nn[nH]n2)cc1 [losartan]
decrease of intimal area (rat carotid artery; Pratt et al. 1992): 95% | neointimal formation, higher doses (rat carotid artery; other studies, losartan at higher doses): effective | neointimal formation (rat carotid artery): ineffective

Asp-Arg-Val-Tyr(PO3)2 -Ile-His-Pro-Phe [[Tyr(PO3)2]^4 -AII]
extent of wound closure, % Control (Day 4) [2]: 81.3% | extent of wound closure, % Control (Day 9) [2]: 61.9%

Asp-Arg-Val-Tyr-Ile-His-Pro (DRVYIHP; printed: Asp-Arg-Val-Tyr-Ile-His-Pro) [AII(1-7)]
amount needed for pressor response comparable to AII ([3]; Benter et al. 1993): about 10,000 times | dose effective on blood pressure relative to the dose of AII ([3]; depending on model and route of administration): 10,000-100,000 times

CGP 42112
neointimal formation (rat carotid artery): prevented neointimal formation

Ile-His-Pro-Phe (IHPF; printed: Ile-His-Pro-Phe) [AII(5-8)]
effect on blood pressure [4]: minimal effect on blood pressure

homoSer^4 -AII [GSD41B]
extent of wound closure, % Control (Day 4) [2]: 77.6% | extent of wound closure, % Control (Day 9) [2]: 55.8%
